{"source": "patent US20200282010A1", "about": "“IMMUNOGENIC COMPOSITIONS AND USES THEREFOR” (Epiaxis Therapeutics Pty Ltd, priority 2017, published 2020)", "key": {"[1]": {"tested_on": "CD8^+ T-cells isolated from melanoma patient's bloods", "assay": "Immunofluorescence of nuclear PKC-θ and ZEB1 in patient CD8+ T-cells", "type": "cell-based, human", "conditions": "all patient samples; vehicle or PMA/CI; inhibitor 8 μm; FIG. 3", "procedure": "FIG. 3 is a photographic representation depicting a PKC-θ resistance signature in CD8^+ T-cells. A-B) CD8s were isolated from melanoma patient liquid biopsies (CR=complete response, SD=Stable Disease, PD=progression of disease) and were stimulated with PMA/CI and pre-clinically screened with either vehicle control or PKCθi nuclear peptide inhibitor. Samples were fixed and immunofluorescence microscopy was performed on these cells with primary antibodies for ZEB1, PKC-θ, and CD8. Representative images for each dataset are shown. Graph represents the TNFI for PKC-Theta and TNFI for ZEB1 measured using ImageJ to select the nucleus minus background (n=>20 cells/sample). Plot profiles for each cohort for ZEB1 and PKC-θ are also depicted (RED=ZEB1, Green=PKC-θ) with the PCC indicated. Graphs depicting the % inhibition or induction based on protein expression where also plotted for each protein target relative to untreated sample. C-D) CD8s were isolated from melanoma patient liquid biopsies (CR=complete response, PR=partial response, PD=progression of disease) and were stimulated with PMA/CI and pre-clinically screened with either vehicle control or our PKCθi nuclear peptide inhibitor. […] Graph represents the TNFI for TNF-α and TNFI for IFN-γ measured using ImageJ to select the nucleus minus background (n=>20 cells/sample). […]"}, "[2]": {"tested_on": "CD8^+ T-cells isolated from melanoma patient's bloods", "assay": "Immunofluorescence of IFN-γ and TNF-α in patient CD8+ T-cells", "type": "cell-based, human", "conditions": "across all samples, particularly the stimulated samples; inhibitor 8 μm; FIG. 3", "procedure": "FIG. 3 is a photographic representation depicting a PKC-θ resistance signature in CD8^+ T-cells. A-B) CD8s were isolated from melanoma patient liquid biopsies (CR=complete response, SD=Stable Disease, PD=progression of disease) and were stimulated with PMA/CI and pre-clinically screened with either vehicle control or PKCθi nuclear peptide inhibitor. Samples were fixed and immunofluorescence microscopy was performed on these cells with primary antibodies for ZEB1, PKC-θ, and CD8. Representative images for each dataset are shown. Graph represents the TNFI for PKC-Theta and TNFI for ZEB1 measured using ImageJ to select the nucleus minus background (n=>20 cells/sample). […] Graph represents the TNFI for TNF-α and TNFI for IFN-γ measured using ImageJ to select the nucleus minus background (n=>20 cells/sample). […]\nMetastatic melanoma biopsies were pre-enriched using the RosetteSep™ method to isolate CTCs by employing the RosetteSep™ Human CD45 Depletion Kit (15162, Stemcell Technologies) to remove CD45+ cells and red blood cells, using density gradient centrifugation with SepMate™-50 (IVD) density gradient tubes (85450, Stemcell Technologies) and Lymphoprep™ density gradient medium (07861, Stemcell Technologies). […] Digital images were analysed using ImageJ software (ImageJ, NIH, Bethesda, Md., USA) to determine TNFI, TCFI or TFI. […]"}}, "data": [{"sequence": "RKEIDPPFRPKVK [PKCθi]", "values": [{"measurement": "expression of ZEB1", "setting": "[1]", "result": "strikingly abrogated"}, {"measurement": "expression of nuclear PKC-θ", "setting": "[1]", "result": "strikingly abrogated"}, {"measurement": "expression of IFN-γ", "setting": "[2]", "result": "significant increase"}, {"measurement": "expression of TNF-α", "setting": "[2]", "result": "significant increase"}]}]}
